Experimental findings from patent US20170204092A1, “4,5-DIHYDROISOXAZOLE DERIVATIVES AS NAMPT INHIBITORS” (AURIGENE DISCOVERY TECHNOLOGIES LIMITED, priority 2014, published 2017) are described below.

Read-outs that look alike come from different tables or passages of the source.

The target of data set [1] is T1, recombinant NAMPT wild type protein (Homo sapiens, UniProt P43490).
T1 construct: made in house; host or cells: E. coli
In words: NAMPT fluorescence assay. The format is biochemical. The settings on record: 50 ng NAMPT, 2 μM Nam, 10 point dose response; read-out: Fluorescence assay IC50 in range. On the procedure: The enzymatic assay was standardized using in-house recombinant NAMPT wild type protein from E. coli expression & NAM (Cat #47865-U) as a substrate. The product NMN formed after enzymatic reaction was derivatized to a fluorescent derivative through sequentially reacting with acetophenone/KOH and formic acid. The derivatized fluorescent NMN derivative was detected at 382 nm excitation wavelength and a 445 nm emission wavelength. […] The fluorescence was measured (Excitation at 382 nm & Emission at 445 nm) using Victor^3 V fluorimeter. The data is calculated using the RFU values. The final concentration of DMSO was 2% in the assay. Each individual IC50 was determined using 10 point dose response curve generated by GraphPad Prism software Version 4 (San Diego, Calif., USA) using nonlinear regression curve fit for sigmoidal dose response (variable slope).

Data set [2] concerns MiaPaCa-2 cells. In words: Cytotoxicity assay in MiaPaCa-2 (XTT, 72 h). It is filed as cell-based. The settings on record: for inhibition at 1 µM / inhibition at 10 µM / Cell cytotoxicity assay (% Inhibition at 1 μM) / Cell cytotoxicity assay (% Inhibition at 10 μM): DMSO control = 0% inhibition; for inhibition at 1 µM: read-out: Cell cytotoxicity assay (% Inhibition at 1 μM); for inhibition at 10 µM: read-out: Cell cytotoxicity assay (% Inhibition at 10 μM); for IC50: XTT, read-out: Cell cytotoxicity assay IC50 in range. The procedure: MiaPaCa-2 Cells (ATCC) were seeded in 96 well plates (Costar clear flat bottom) at a density of 3000 cells/well and allowed to settle overnight. Test compounds were dissolved in dimethyl sulphoxide (DMSO-Sigma Aldrich, D2650) and incubated with MiaPaCa-2 cells for 72 h. Post 72 h, 50 μl XTT (1 mg/mL; Invitrogen, X 6493) and PMS ([…]; Sigma Aldrich, P9625) reagents were added to the cells in 100 μl of cDMEM (Sigma Aldrich-D5648)+10% FBS (Hyclone-5430088-03)+1×Pen Strep (Sigma Aldrich-P0781). After 1 hour incubation with XTT and PMS absorbance was monitored with Spectramax M3 (Molecular Device). Percentage inhibition of proliferation at 10 μM and 1 μM concentrations was calculated by considering DMSO control as 0% inhibition. IC50 values were plotted using Graph pad prism software (Graph pad Inc, La Jola, Calif., USA).
For orientation: Tetrazolium dyes change colour on reduction, which living cells bring about.

T1 sequence (P43490 whole entry): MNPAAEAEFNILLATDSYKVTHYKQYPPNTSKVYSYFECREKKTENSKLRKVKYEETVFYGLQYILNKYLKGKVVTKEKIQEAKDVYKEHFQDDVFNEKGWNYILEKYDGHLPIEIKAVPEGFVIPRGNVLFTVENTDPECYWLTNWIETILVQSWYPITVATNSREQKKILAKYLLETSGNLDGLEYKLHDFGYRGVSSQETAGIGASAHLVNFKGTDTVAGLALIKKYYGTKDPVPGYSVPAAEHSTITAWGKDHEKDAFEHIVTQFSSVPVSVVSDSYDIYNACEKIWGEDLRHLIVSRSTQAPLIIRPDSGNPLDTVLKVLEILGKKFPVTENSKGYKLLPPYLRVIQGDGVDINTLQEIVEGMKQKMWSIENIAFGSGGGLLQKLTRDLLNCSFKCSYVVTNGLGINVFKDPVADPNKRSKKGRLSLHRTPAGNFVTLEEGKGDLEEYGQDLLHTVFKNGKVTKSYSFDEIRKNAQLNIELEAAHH

By IC50 is commonly meant the point on the concentration scale where inhibition reaches its midpoint. What is called inhibition is the share of the control response that was lost under treatment. In the case of `Cc1ccc(OCC2CC(CNC(=O)c3ccc4nccn4c3)=NO2)c(-c2ccc(F)nc2)n1` (racemic) [Example 12, N-((5-(((6′-fluoro-6-methyl-[2,3′-bipyridin]-3-yl)oxy)methyl)-4,5-dihydroisoxazol-3-yl)methyl)imidazo[1,2-a]pyridine-6-carboxamide], in data set [1], the IC50 is above 25 nM. Besides, in data set [2] (Homo sapiens, MIA PaCa-2, 72 h), the inhibition at 1 µM was found to be 96%, the inhibition at 10 µM was 95% and the IC50 is below 50 nM.

Consider `O=C(NCC1=NOC(COc2cc(Cl)cnc2-c2cccnc2)C1)c1ccc2nccn2c1` (racemic) [Example 13, N-((5-(((5-chloro-[2,3′-bipyridin]-3-yl)oxy)methyl)-4,5-dihydroisoxazol-3-yl)methyl)imidazo[1,2-a]pyridine-6-carboxamide], for which the half-inhibitory concentration (IC50) in data set [1] is below 10 nM. Further, in data set [2] (Homo sapiens, MIA PaCa-2, 72 h), the inhibition at 1 µM was 95%, the inhibition at 10 µM is 95% and the IC50 is 50 to 250 nM.

Regarding `O=C(NCC1=NOC(COc2cc(Cl)cnc2-c2ccc(F)nc2)C1)c1ccc2nccn2c1` (racemic) [Example 14, N-((5-(((5-chloro-6′-fluoro-[2,3′-bipyridin]-3-yl)oxy)methyl)-4,5-dihydro-isoxazol-3-yl)methyl)imidazo[1,2-a]pyridine-6-carboxamide], the IC50 in data set [1] lay within 10 to 25 nM. Also, in data set [2] (Homo sapiens, MIA PaCa-2, 72 h), the inhibition at 1 µM worked out at 95%, the inhibition at 10 µM was 95% and the IC50 was below 50 nM.

As for `Cc1cc(NC(=O)NCC2=NOC(COc3cccnc3-c3ccc(F)nc3)C2)ccn1` (racemic) [Example 16, 1-((5-(((6′-fluoro-[2,3′-bipyridin]-3-yl)oxy)methyl)-4,5-dihydroisoxazol-3-yl)methyl)-3-(2-methylpyridin-4-yl)urea], in data set [1], the IC50 is below 10 nM. Moreover, in data set [2] (Homo sapiens, MIA PaCa-2, 72 h), the inhibition at 1 µM amounted to 89%, the inhibition at 10 µM was 89% and the IC50 was in the range of 50 to 250 nM.

`O=C(NCC1=NOC(COc2cccnc2-c2ccc(F)nc2)C1)Nc1ccncc1` (racemic) [Example 17, 1-((5-(((6′-fluoro-[2,3′-bipyridin]-3-yl)oxy)methyl)-4,5-dihydroisoxazol-3-yl)methyl)-3-(pyridin-4-yl)urea]: in data set [1], the IC50 was below 10 nM. Further, in data set [2] (Homo sapiens, MIA PaCa-2, 72 h), the inhibition at 1 µM is 90%, the inhibition at 10 µM amounted to 89% and the IC50 is below 50 nM.

In the case of `O=C(NCC1=NOC(COc2cccnc2-c2ccc(F)nc2)C1)Nc1ccnnc1` (racemic) [Example 18, 1-((5-(((6′-fluoro-[2,3′-bipyridin]-3-yl)oxy)methyl)-4,5-dihydroisoxazol-3-yl)methyl)-3-(pyridazin-4-yl)urea], in data set [1], the half-inhibitory concentration (IC50) is above 25 nM. Further, in data set [2] (Homo sapiens, MIA PaCa-2, 72 h), the inhibition at 1 µM is 90%, the inhibition at 10 µM is 89% and the IC50 fell in the range of 50 to 250 nM.

Regarding `Cc1cc(NC(=O)NCC2=NOC(COc3cccnc3-c3cnn(C)c3)C2)ccn1` (racemic) [Example 19, 1-((5-(((2-(1-methyl-1H-pyrazol-4-yl)pyridin-3-yl)oxy)methyl)-4,5-dihydroisoxazol-3-yl)methyl)-3-(2-methylpyridin-4-yl)urea], the IC50 in data set [1] lay within 10 to 25 nM. Besides, in data set [2] (Homo sapiens, MIA PaCa-2, 72 h), the inhibition at 1 µM stood at 17%, the inhibition at 10 µM was determined as 82% and the half-inhibitory concentration (IC50) was above 250 nM.

In the case of `O=C(NCC1=NOC(COc2cccnc2-c2ccc(F)nc2)C1)c1ccc2nccn2c1` (single isomer, unassigned) [Example 4a, N-((5-(((6′-fluoro-[2,3′-bipyridin]-3-yl)oxy)methyl)-4,5-dihydroisoxazol-3-yl)methyl)imidazo[1,2-a]pyridine-6-carboxamide], the IC50 in data set [1] was below 10 nM. For the same molecule, in data set [2], the “Cell cytotoxicity assay (% Inhibition at 1 μM)” value was 8% and the IC50 was above 250 nM. For the same molecule, the inhibition at 10 µM in data set [2] (Homo sapiens, MIA PaCa-2, 72 h) was determined as 83%.

As for `O=C(NCC1=NOC(COc2cccnc2-c2ccc(F)nc2)C1)c1ccc2nccn2c1` (single isomer, unassigned) [Example 4b, N-((5-(((6′-fluoro-[2,3′-bipyridin]-3-yl)oxy)methyl)-4,5-dihydroisoxazol-3-yl)methyl)imidazo[1,2-a]pyridine-6-carboxamide], the 50% inhibitory concentration (IC50) in data set [1] was below 10 nM. In addition, in data set [2], the “Cell cytotoxicity assay (% Inhibition at 1 μM)” value is recorded as 95%, the “Cell cytotoxicity assay (% Inhibition at 10 μM)” value is recorded as 94% and the half-inhibitory concentration (IC50) is below 50 nM.

As for `O=C(NCC1=NOC(COc2cccnc2-c2cccnc2)C1)c1ccc2nccn2c1` (single isomer, unassigned) [Example 7a, N-((5-(([2,3′-bipyridin]-3-yloxy)methyl)-4,5-dihydroisoxazol-3-yl)methyl)-imidazo[1,2-a]pyridine-6-carboxamide], the IC50 in data set [1] is below 10 nM; in data set [2], below 50 nM.

Take `O=C(NCC1=NOC(COc2cccnc2-c2ccc(Cl)nc2)C1)c1ccc2nccn2c1` (single isomer, unassigned) [Example 8b, N-((5-(((6′-chloro-[2,3′-bipyridin]-3-yl)oxy)methyl)-4,5-dihydroisoxazol-3-yl)methyl)imidazo[1,2-a]pyridine-6-carboxamide]: the IC50 in data set [1] is above 25 nM. For the same molecule, in data set [2], the “Cell cytotoxicity assay (% Inhibition at 1 μM)” value came out at 92%, the “Cell cytotoxicity assay (% Inhibition at 10 μM)” value is given as 94% and the IC50 lay within 50 to 250 nM.

`O=C(NCC1=NOC(COc2cc(F)cnc2-c2ccc(F)nc2)C1)c1ccc2nccn2c1` (single isomer, unassigned) [Example 9a, N-((5-(((5,6′-difluoro-[2,3′-bipyridin]-3-yl)oxy)methyl)-4,5-dihydroisoxazol-3-yl)methyl)imidazo[1,2-a]pyridine-6-carboxamide]: the IC50 in data set [1] is below 10 nM. Moreover, in data set [2], the “Cell cytotoxicity assay (% Inhibition at 1 μM)” value came out at 12% and the IC50 is above 250 nM. In addition, the inhibition at 10 µM in data set [2] (Homo sapiens, MIA PaCa-2, 72 h) turned out to be 90%.

As for `O=C(NCC1=NOC(COc2cc(F)cnc2-c2ccc(F)nc2)C1)c1ccc2nccn2c1` (single isomer, unassigned) [Example 9b, N-((5-(((5,6′-difluoro-[2,3′-bipyridin]-3-yl)oxy)methyl)-4,5-dihydroisoxazol-3-yl)methyl)imidazo[1,2-a]pyridine-6-carboxamide], the 50% inhibitory concentration (IC50) in data set [1] was in the range of 10 to 25 nM. Also, in data set [2], the “Cell cytotoxicity assay (% Inhibition at 1 μM)” value is 95%, the “Cell cytotoxicity assay (% Inhibition at 10 μM)” value was determined as 95% and the 50% inhibitory concentration (IC50) was below 50 nM.

Consider `Cc1cnc(-c2ccc(F)nc2)c(OCC2CC(CNC(=O)c3ccc4nccn4c3)=NO2)c1` (single isomer, unassigned) [Example 11a, N-((5-(((6′-fluoro-5-methyl-[2,3′-bipyridin]-3-yl)oxy)methyl)-4,5-dihydroisoxazol-3-yl)methyl)imidazo[1,2-a]pyridine-6-carboxamide], for which the 50% inhibitory concentration (IC50) in data set [1] was 10 to 25 nM; in data set [2], above 250 nM. In addition, the inhibition at 1 µM in data set [2] (Homo sapiens, MIA PaCa-2, 72 h) was determined as 88%. Also, the inhibition at 10 µM in data set [2] (Homo sapiens, MIA PaCa-2, 72 h) worked out at 100%.

Consider `Cc1cnc(-c2ccc(F)nc2)c(OCC2CC(CNC(=O)c3ccc4nccn4c3)=NO2)c1` (single isomer, unassigned) [Example 11b, N-((5-(((6′-fluoro-5-methyl-[2,3′-bipyridin]-3-yl)oxy)methyl)-4,5-dihydroisoxazol-3-yl)methyl)imidazo[1,2-a]pyridine-6-carboxamide], for which the IC50 in data set [1] lay in the range of 10 to 25 nM. Further, in data set [2], the “Cell cytotoxicity assay (% Inhibition at 1 μM)” value amounted to 100%, the “Cell cytotoxicity assay (% Inhibition at 10 μM)” value was determined as 98% and the IC50 is below 50 nM.

With `Cc1ccc(OCC2CC(CNC(=O)c3ccc4nccn4c3)=NO2)c(-c2ccc(F)nc2)n1` (single isomer, unassigned) [Example 12a, N-((5-(((6′-fluoro-6-methyl-[2,3′-bipyridin]-3-yl)oxy)methyl)-4,5-dihydroisoxazol-3-yl)methyl)imidazo[1,2-a]pyridine-6-carboxamide], the half-maximal inhibitory concentration (IC50) in data set [1] is 10 to 25 nM; in data set [2], above 250 nM. The “Cell cytotoxicity assay (% Inhibition at 1 μM)” value in data set [2] is given as 45%. For the same molecule, the inhibition at 10 µM in data set [2] (Homo sapiens, MIA PaCa-2, 72 h) stood at 96%.

With `Cc1ccc(OCC2CC(CNC(=O)c3ccc4nccn4c3)=NO2)c(-c2ccc(F)nc2)n1` (single isomer, unassigned) [Example 12b, N-((5-(((6′-fluoro-6-methyl-[2,3′-bipyridin]-3-yl)oxy)methyl)-4,5-dihydroisoxazol-3-yl)methyl)imidazo[1,2-a]pyridine-6-carboxamide], the half-inhibitory concentration (IC50) in data set [1] was in the range of 10 to 25 nM. In data set [2], the “Cell cytotoxicity assay (% Inhibition at 1 μM)” value is 100%, the “Cell cytotoxicity assay (% Inhibition at 10 μM)” value is listed as 100% and the half-maximal inhibitory concentration (IC50) was below 50 nM.
